ChEMBL document CHEMBL1155220, “The medicinal chemistry of dengue fever” (J Med Chem, 2009)
Converted amounts (≈) assume the structure as drawn.

Tests used:
Dengue virus [1] = experiment: Antiviral activity against Dengue virus; format: functional, organism-based
[2] = Inhibition of Dengue virus IMPDH
[3] = Inhibition of Dengue virus sEnvelope glycoprotein binding to immobilized heparin
Dengue virus [4] = experiment: Antiviral activity against Dengue virus by cell based assay; format: functional, organism-based
Dengue virus [5] = experiment: Antiviral activity against Dengue virus assessed as inhibition of virus-induced cytopathic effect by cell based assay; format: functional, organism-based
Dengue virus [6] = experiment: Antiviral activity against Dengue virus assessed as reduction of virus yield by cell based assay; format: functional, organism-based
[7] = Inhibition of Dengue virus N7-methyl transferase
[8] = Inhibition of Dengue virus 2'-O-methyl transferase
Dengue virus [9] = experiment: Inhibition of Dengue virus NS3 helicase at 100 uM
[10] = Inhibition of Dengue virus NS3 helicase

NC(=O)c1ncn([C@@H]2O[C@H](CO)[C@@H](O)[C@H]2O)n1 [RIBAVIRIN]
EC50 (Dengue virus [1]): 49 µg/mL (≈ 201 µM) | IC50 [2]: 1.6 µg/mL (≈ 6.55 µM)

O=C(O)/C=C/c1ccc(OS(=O)(=O)O)cc1
IC50 (Dengue virus [1]): 2000 µM

O[C@H]1[C@H](O)[C@@H](O)CN2CC[C@H](O)[C@H]12 [CASTANOSPERMINE]
IC50 (Dengue virus [1]): 1 µM

CCN(CCCN(CC)C(=O)c1ccc(O)cc1)C(=O)c1ccc(O)cc1
IC50 (Dengue virus [1]): 2000 µM

Cc1ccc(C(=O)Nc2ccc(S(=O)(=O)O)c3cc(S(=O)(=O)O)cc(S(=O)(=O)O)c23)cc1NC(=O)c1cccc(NC(=O)Nc2cccc(C(=O)Nc3cc(C(=O)Nc4ccc(S(=O)(=O)O)c5cc(S(=O)(=O)O)cc(S(=O)(=O)O)c45)ccc3C)c2)c1 [SURAMIN]
IC50 [3]: 0.7 µM

C[C@@]1(O)[C@H](O)[C@@H](CO)O[C@H]1n1ccc2c(N)ncnc21 [BETA-2'-C-METHYL-7-DEAZA-ADENOSINE]
EC50 (Dengue virus [4]): 15 µM

CN(CCCNC(=O)c1ccc(O)cc1)CCCNC(=O)c1ccc2cc(O)ccc2c1
IC50 (Dengue virus [1]): 294 µM

C#Cc1c(C(N)=O)ncn1[C@@H]1O[C@H](CO)[C@@H](O)[C@H]1O
IC50 [2]: 38 µg/mL (≈ 142 µM)

O=c1cnn([C@@H]2O[C@H](CO)[C@@H](O)[C@H]2O)c(=O)[nH]1 [6-AZAURIDINE]
EC50 (Dengue virus [4]): 0.1 µg/mL

CN[C@@H]1[C@@H](O)[C@@H](O[C@@H]2[C@@H](O)[C@H](O[C@H]3O[C@H]([C@@H](C)O)[C@@H](O)[C@H](O)[C@H]3N)[C@@H](N)C[C@H]2N)OC[C@]1(C)O [GENETICIN]
EC50 (Dengue virus [5]): 6 µM | EC50 (Dengue virus [6]): 4 µM

O=C(O)C1=CC(=C(c2ccc(O)c(C(=O)O)c2)c2ccc(O)c(C(=O)O)c2)C=CC1=O [AURINTRICARBOXYLIC ACID]
IC50 [7]: 2.3 µM | IC50 [8]: 127 µM

COc1cc(NC(=O)Nc2cccc(CNC(=O)O[C@H]3CCOC3)c2)ccc1-c1cnco1 [MERIMEPODIB]
IC50 (Dengue virus [1]): 8 µM

CN(CCCNC(=O)c1ccc(O)cc1)CCCNC(=O)c1ccc(O)cc1
IC50 (Dengue virus [1]): 2000 µM

CCN(CCOC(=O)/C=C/c1ccc(O)cc1)Cc1cc(Cl)ccc1O
IC50 (Dengue virus [1]): 46 µM

COc1c(C)c2c(c(O)c1C/C=C(\C)CCC(=O)O)C(=O)OC2 [MYCOPHENOLIC ACID]
IC50 [2]: 0.1 µg/mL (≈ 0.312 µM)

CO[C@@H]1[C@H](O)[C@@H](CO)O[C@H]1n1cnc2c(=O)[nH][nH]c(=O)c21
inhibition (Dengue virus [9]): 30% | IC50 [10]: 30 µM
